# Patent US9416144B2, “Benzoxazine oxazolidinone compound, preparation method and application thereof” (priority 2012, dated 2016)
# Assays:
# Experiment in all cases: In vitro antibacterial activity, MIC by agar double dilution method
# Assay type in all cases: cell-based
# [1] = tested on: Staphylococcus aureus resistant strains (6 strains); details: clinical isolates
# From the text: (§1) Experimental method: The agar double dilution method (Antimicrob. Agents and Chemother, 40, 1996, 720-726) was used to determine the minimum inhibitory concentration (MIC) of the series of compounds of the invention and the positive control drug linezolid for the test strains. The multipoint inoculation system (Denley A400) was employed to inoculate the bacteria on the agar plate surface with different concentrations of drugs; inoculation amount on each point was about 10^6 CFU/mL. The plates were incubated at 35° C. for 16 hrs before the results were observed. The lowest drug concentration contained in the Petri dish without bacterial growth was used as the minimum inhibitory concentration (MIC value) of the drug fir that strain.
# (§2) Test strains: All the test strains were clinically isolated pathogens which were collected from the Nanjing region, and they were re-identified by routine methods before use. 31 strains of the clinically isolated pathogens were chosen, including 6 strains of Enterococcus, 5 Staphylococcus aureus sensitive strains; 5 Staphylococcus epidermidis sensitive strains; 6 Staphylococcus aureus resistant strains; 5 Staphylococcus epidermidis resistant strains; and 4 Streptococcus pneumoniae resistant strains.
# (§3) Compounds to be tested were first added 2 ml of DMSO to help them fully dissolved, then added sterile double distilled water to the desired concentration; to all the Petri dish with added drug liquid were added 20 mL MIT medium which was heat-melted to be liquid-like, to make the final drug concentration in the Petri dish to be 64, 32, 16, 8, 4, 2, 1, 0.5, 0.25, 0.125, 0.0625, and 0.031 μg/mL.
# (§4) The positive control group was LZ (linezolid, brand name Zyvox, approved by the FDA in 2000 to be firstly sold in the United States, which is the first and also the only one of oxazolidinone antibacterial drugs allowed to enter clinical application).
# [2] = tested on: Staphylococcus epidermidis resistant strains (5 strains); details: clinical isolates
# From the text: as §1, §2, §3, §4
# [3] = tested on: Staphylococcus epidermidis sensitive strains (5 strains); details: clinical isolates
# From the text: as §1, §2, §3, §4
# [4] = tested on: Streptococcus pneumoniae resistant strains (4 strains); details: clinical isolates
# From the text: as §1, §2, §3, §4
# [5] = tested on: Staphylococcus aureus sensitive strains (5 strains); details: clinical isolates
# From the text: as §1, §2, §3, §4
# Enterococcus (6 strains) = details: clinical isolates, 35° C. 16 hrs
# From the text: as §1, §2, §3, §4
Structure (SMILES),MIC [1],MIC [2],MIC [3],MIC [4],MIC [5],MIC (Enterococcus (6 strains))
"O=C1O[C@@H](CO)[C@@H]2COc3cc(-c4ccc(C(O)C5CC5)nc4)ccc3N12 (stereo partly drawn) [Compound 6, (3R,3aS)-7-(6-(cyclopropyl(hydroxyl)methyl)pyridin-3-yl)-3-(hydroxyl-methyl)-3a,4-dihydrobenzo[b]oxazolo[3,4-d][1,4]oxazin-1(3H)-one]",1 to 2 µg/mL,1 µg/mL,0.5 to 1 µg/mL,1 to 2 µg/mL,1 µg/mL,2 µg/mL
"CC(C)(O)c1ccc(-c2ccc3c(c2)OC[C@H]2[C@H](CO)OC(=O)N32)cn1 [Compound 7, (3R,3aS)-3-(hydroxylmethyl)-7-(6-(2-hydroxylpropyl-2-yl)pyridin-3-yl)-3a,4-dihydrobenzo[b]oxazolo[3,4-d][1,4]oxazin-1(3H)-one]",1 to 4 µg/mL,2 µg/mL,1 to 4 µg/mL,2 to 4 µg/mL,1 to 4 µg/mL,4 µg/mL
"CC(O)c1ccc(-c2ccc3c(c2)OC[C@H]2[C@H](CO)OC(=O)N32)cn1 (stereo partly drawn) [Compound 8, (3R,3aS)-7-(6-(1-hydroxylethyl)pyridin-3-yl)-3-(hydroxylmethyl)-3a,4-dihydrobenzo[b]oxazolo[3,4-d][1,4]oxazin-1(3H)-one]",1 to 2 µg/mL,1 to 2 µg/mL,1 µg/mL,2 to 4 µg/mL,1 to 2 µg/mL,2 to 4 µg/mL
"O=C1O[C@@H](CO)[C@@H]2COc3cc(-c4ccc(CO)nc4)ccc3N12 [Compound 9, (3R,3aS)-3-(hydroxylmethyl)-7-(6-(hydroxylmethyl)pyridin-3-yl)-3a,4-dihydrobenzo[b]oxazolo[3,4-d][1,4]oxazin-1(3H)-one]",1 to 2 µg/mL,0.5 to 1 µg/mL,0.5 µg/mL,2 to 4 µg/mL,1 to 2 µg/mL,4 µg/mL
"O=C1O[C@@H](CO)[C@@H]2COc3cc(-c4ccc(C5(O)CCCC5)nc4)ccc3N12 [Compound 10, (3R,3aS)-7-(6-(1-hydroxylcyclopentyl)pyridin-3-yl)-3-(hydroxylmethyl)-3a,4-dihydrobenzo[b]oxazolo[3,4-d][1,4]oxazin-1(3H)-one]",1 to 2 µg/mL,1 to 2 µg/mL,1 to 2 µg/mL,2 µg/mL,2 µg/mL,2 to 4 µg/mL
"CN1CCN(c2ccc(-c3ccc4c(c3)OC[C@H]3[C@H](CO)OC(=O)N43)cn2)CC1 [Compound 12, (3R,3aS)-3-(hydroxylmethyl)7-(6-(4-methylpiperazin-1-yl)pyridin-3-yl)-3a,4-dihydrobenzo[b]oxazolo[3,4-d][1,4]oxazin-1(3H)-one]",4 to 8 µg/mL,4 µg/mL,2 to 4 µg/mL,4 µg/mL,2 to 4 µg/mL,2 to 4 µg/mL
"CC(C)N1CC(c2ccc(-c3ccc4c(c3)OC[C@H]3[C@H](CO)OC(=O)N43)cn2)OC1=O (stereo partly drawn) [Compound 15, (3R,3aS)-3-(hydroxylmethyl)-7-(6-(3-isopropyl-2-oxazolidin-5-yl)pyridin-3-yl)-3a,4-dihydrobenzo[b]oxazolo[3,4-d][1,4]oxazin-1(3H)-one]",1 to 2 µg/mL,2 to 4 µg/mL,1 to 2 µg/mL,2 µg/mL,1 to 2 µg/mL,1 to 2 µg/mL
"O=C1OC(c2ccc(-c3ccc4c(c3)OC[C@H]3[C@H](CO)OC(=O)N43)cn2)CN1Cc1ccccc1 (stereo partly drawn) [Compound 16, (3R,3aS)-7-(6-(3-benzyl-2-oxazolidin-5-yl)pyridin-3-yl)-3-(hydroxylmethyl)-3a,4-dihydrobenzo[b]oxazolo[3,4-d][1,4]oxazin-1(3H)-one]",1 to 2 µg/mL,2 to 4 µg/mL,1 to 2 µg/mL,2 µg/mL,1 to 2 µg/mL,1 to 2 µg/mL
"Cn1nnc(-c2ccc(-c3ccc4c(c3)OC[C@H]3[C@H](CO)OC(=O)N43)cn2)n1 [Compound 17, (3R,3aS)-3-(hydroxylmethyl)-7-(6-(2-methyl-2H-tetrazol-5-yl)pyridin-3-yl)-3a,4-dihydrobenzo[b]oxazolo[3,4-d][1,4]oxazin-1(3H)-one]",1 to 2 µg/mL,1 to 2 µg/mL,1 to 2 µg/mL,1 to 2 µg/mL,1 to 4 µg/mL,4 µg/mL
